Here are results for 42 compounds from US8859543B2, “Imidazo[1,2-a]pyrazine derivatives and their use for the prevention or treatment of neurological, psychiatric and metabolic disorders and diseases” (Janssen Pharmaceutica NV, priority 2010, dated 2014).

What is called ED50 is the dose that gives a 50% effect, or the effect in half of the subjects.

The structures appear in SMILES notation.

In one assay the target is T1, Rat recombinant PDE10A (rPDE10A2) (Rattus norvegicus, UniProt Q9QYJ6).
T1 construct: made in house; host or cells: Sf9 insect cells, baculovirus
T1 sequence (Q9QYJ6 1-794): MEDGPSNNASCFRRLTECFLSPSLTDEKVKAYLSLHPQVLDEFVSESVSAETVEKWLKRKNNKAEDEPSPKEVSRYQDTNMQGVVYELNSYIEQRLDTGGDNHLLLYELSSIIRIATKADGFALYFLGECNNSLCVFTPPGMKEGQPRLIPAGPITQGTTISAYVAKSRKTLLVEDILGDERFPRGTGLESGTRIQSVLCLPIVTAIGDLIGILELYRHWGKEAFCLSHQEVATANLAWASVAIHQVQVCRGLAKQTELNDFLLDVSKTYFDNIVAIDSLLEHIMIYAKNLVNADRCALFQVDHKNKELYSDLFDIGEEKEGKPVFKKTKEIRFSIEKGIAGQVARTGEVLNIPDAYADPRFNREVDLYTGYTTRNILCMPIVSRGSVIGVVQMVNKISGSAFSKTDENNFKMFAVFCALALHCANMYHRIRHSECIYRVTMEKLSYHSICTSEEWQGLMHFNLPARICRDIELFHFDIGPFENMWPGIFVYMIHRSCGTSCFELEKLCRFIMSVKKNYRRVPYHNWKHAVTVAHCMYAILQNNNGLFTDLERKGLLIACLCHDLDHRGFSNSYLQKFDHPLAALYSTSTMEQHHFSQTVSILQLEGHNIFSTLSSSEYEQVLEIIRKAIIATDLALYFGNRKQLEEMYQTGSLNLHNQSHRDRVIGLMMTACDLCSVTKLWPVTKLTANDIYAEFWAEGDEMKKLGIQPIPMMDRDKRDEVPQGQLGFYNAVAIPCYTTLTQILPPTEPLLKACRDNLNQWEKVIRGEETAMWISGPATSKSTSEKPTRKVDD
Description: In vitro assay PDE10A (SPA, 3H-cAMP). The format is biochemical. To be noted: pIC50 corresponds to the -log IC50 expressed in mol/L; read-out: PDE10A2 pIC50 (converted). The procedure:
Rat recombinant PDE10A (rPDE10A2) was expressed in Sf9 cells using a recombinant rPDE10A baculovirus construct. Cells were harvested after 48 h of infection and the rPDE10A protein was purified by metal chelate chromatography on Ni-sepharose 6FF. Tested compounds were dissolved and diluted in 100% DMSO to a concentration 100 fold of the final concentration in the assay. Compound dilutions (0.4 μl) were added in 384 well plates to 20 μl of incubation buffer (50 mM Tris pH 7.8, 8.3 mM MgCl2, 1.7 mM EGTA). 10 μl of rPDE10A enzyme in incubation buffer was added and the reaction was started by addition of 10 μl substrate to a final concentration of 60 nM cAMP and 0.008 μCi ^3H-cAMP. The reaction was incubated for 60 min. at RT. […] After sedimentation of the beads during 30 min. the radioactivity was measured in a Perkin Elmer Topcount scintillation counter and results were expressed as cpm. For blank values the enzyme was omitted from the reaction and replaced by incubation buffer. Control values were obtained by addition of a final concentration of 1% DMSO instead of compound. The same assay principle is applied for the measurement of the affinity of the compound for other members of the PDE family with appropriate modifications in incubation buffer, substrate concentration, incubation time and stop solution.
In the case of `Cc1nc2c(N3CCOCC3)nccn2c1-c1cnn(CC2CC2(F)F)c1` (single isomer, unassigned) [compound 47], the IC50 is 28.2 nM.
On the same count and under the same terms, then `COC(Cn1cc(-c2c(C)nc3c(N4CCOCC4)nccn23)cn1)C(C)C` (single isomer, unassigned) [compound 54], with 56.2 nM; and `COC(Cn1cc(-c2c(C)nc3c(N4CCOCC4)nccn23)cn1)C(C)C` (single isomer, unassigned) [compound 59], with 74.1 nM; and `Cc1nc2c(N3CCOCC3)nccn2c1-c1cnn(CC2CC2(F)F)c1` (single isomer, unassigned) [compound 64], with 83.2 nM.
For `Cc1nc2c(-c3ccncc3)nccn2c1-c1cnn(CC2CCCCO2)c1` (single isomer, unassigned) [compound 80], the IC50 is 112 nM.
For the compound `Cc1nc2c(N3CCOCC3)nccn2c1-c1cnn(C2CCOC2)c1` (single isomer, unassigned) [compound 88], the IC50 is 132 nM.
On the same count and under the same terms, then `Cc1nc2c(-c3ccncc3)nccn2c1-c1cnn(CC2CCCCO2)c1` (single isomer, unassigned) [compound 92], with 135 nM; and `Cc1nc2c(N3CCOCC3)nccn2c1-c1cnn(C2CCOC2)c1` (single isomer, unassigned) [compound 109], with 178 nM.
Take `COC(C)(C)COc1ccc(-c2c(C)nc3c(-c4ccncc4)nccn23)cn1` [compound 2, 3-[6-(2-Methoxy-2-methyl-propoxy)-pyridin-3-yl]-2-methyl-8-pyridin-4-yl-imidazo[1,2-a]pyrazine]: the IC50 is 708 nM.
As to `COc1ncc(-c2c(C)nc3c(N4CCOCC4)nccn23)cn1` [compound 32, 3-(2-Methoxy-pyrimidin-5-yl)-2-methyl-8-morpholin-4-yl-imidazo[1,2-a]pyrazine], the IC50 is 479 nM.
With `COCCn1cc(-c2c(C)nc3c(N4CCOCC4)nc(C4CC4)cn23)cn1` [compound 37, 6-Cyclopropyl-3-[1-(2-methoxy-ethyl)-1H-pyrazol-4-yl]-2-methyl-8-morpholin-4-yl-imidazo[1,2-a]pyrazine], the IC50 is 490 nM.
Consider `COCCn1cc(-c2c(C)nc3c(N4CCOCC4)nc(CCC(F)(F)F)cn23)cn1` [compound 39, 3-[1-(2-Methoxy-ethyl)-1H-pyrazol-4-yl]-2-methyl-8-morpholin-4-yl-6-(3,3,3-trifluoro-propyl)-imidazo[1,2-a]pyrazine], for which the IC50 was 933 nM.
Consider `Cc1nc2c(N3CCOCC3)nccn2c1-c1cc[nH]c1` [compound 43, 2-Methyl-8-morpholin-4-yl-3-(1H-pyrrol-3-yl)-imidazo[1,2-a]pyrazine], for which the IC50 was 871 nM.
`COC(C)(C)Cc1ccc(-c2c(C3CC3)nc3c(N4CCOCC4)nccn23)cn1` [compound 60]: the IC50 was 75.9 nM.
The same measure, in the same setting: as for `CCc1ccc(-c2c(C3CC3)nc3c(N4CCOCC4)nccn23)cn1` [compound 66], the figure is 85.1 nM; as for `Cc1nc2c(N3CCOCC3)nccn2c1-c1cnn(CC2CCCCO2)c1` (stereo not drawn) [compound 73], 95.5 nM.
Take `COC[C@H](C)n1cc(-c2c(C)nc3c(N4CCOCC4)nccn23)cn1` [compound 75]: the IC50 is 100 nM.
With `Cc1nc2c(N3CCOCC3)nccn2c1-c1cnc(N2CCOCC2)nc1` [compound 85], the IC50 is 120 nM.
`Cc1nc2c(N3CCOCC3)nccn2c1-c1cnn(CCCF)c1` [compound 86]: the IC50 was 123 nM.
In the case of `CCOCCn1cc(-c2c(C)nc3c(N4CCOCC4)nccn23)cn1` [compound 93], the IC50 is 135 nM.
In the case of `Cc1nc2c(N3CCOCC3)nccn2c1-c1cnn(CC(=O)C2CC2)c1` [compound 98], the IC50 is 145 nM.
Take `CC(=O)Cn1cc(-c2c(C)nc3c(N4CCOCC4)nccn23)cn1` [compound 117]: the IC50 is 309 nM.
On the same count and under the same terms, then `Cc1nc2c(-c3ccncc3)nccn2c1-c1cnn(CCN2CCOCC2)c1` [compound 126], with 457 nM; and `Cc1nc2c(N3CCOCC3)nccn2c1-c1cnn(CCOC(C)C)c1` [compound 127], with 457 nM.
In the case of `CCOCCn1cc(-c2c(C)nc3c(-c4ccncc4)nccn23)cn1` [compound 128], the IC50 was 468 nM.
With `Cc1nc2c(-c3ccncc3)nccn2c1-c1ccc(OCC(F)(F)F)nc1` [compound 129], the IC50 is 501 nM.
As to `COCCn1cc(-c2c(OC)nc3c(N4CCCC4)nccn23)cn1` [compound 131], the IC50 was 537 nM.
Regarding `COCCOc1ccc(-c2c(C)nc3c(-c4ccncc4)nccn23)cn1` [compound 132], the IC50 is 537 nM.
Regarding `Cc1cc(-c2c(C)nc3c(N4CCOCC4)nccn23)ccn1` [compound 133], the IC50 was 550 nM.
On the same count and under the same terms, then `COCCn1cc(-c2c(OC)nc3c(N4CCOCC4)nccn23)cn1` [compound 137], with 631 nM; and `Cc1nc2c(N3CCOCC3)nccn2c1-c1ccc(-c2ccc(F)cc2)nc1` [compound 139], with 776 nM.
Same read-out and setting: then `Cc1nc2c(N3CCOCC3)nccn2c1-c1ccc(CCN2CCCC2)nc1` [compound 140], with 871 nM.

For another assay, the system named is apomorphine-induced stereotypy. Description: Apomorphine-induced stereotypy in rats (APO). The class given is in vivo. As to conditions: Rattus norvegicus, po; * compound was not soluble and was tested orally as a suspension; read-out: APO ED50. The procedure: Apomorphine-Induced Stereotypy in Rats (APO)
Apomorphine (1.0 mg/kg, i.v.)-induced stereotypy (compulsive sniffing, licking, chewing) was scored every 5 min. over the first hour after injection of apomorphine, following a 1 hour interval pre-treatment with the test compound. The score system was: (3) pronounced, (2) moderate, (1) slight, and (O) absent.
Turning to `COCCOc1ccc(-c2c(C)nc3c(N4CCOCC4)nccn23)cn1` [compound 1, 3-[6-(2-Methoxy-ethoxy)-pyridin-3-yl]-2-methyl-8-morpholin-4-yl-imidazo[1,2-a]pyrazine], the ED50 worked out at 0.8 mg/kg.

Still in this assay, the particulars now being: Rattus norvegicus, read-out: APO ED50.
For `COCCCc1ccc(-c2c(C)nc3c(N4CCOCC4)nccn23)cn1` [compound 6, 3-[6-(3-Methoxy-propyl)-pyridin-3-yl]-2-methyl-8-morpholin-4-yl-imidazo[1,2-a]pyrazine], the ED50 is ≤ 2.5 mg/kg.
On the same count and under the same terms, as for `COC(C)(C)Cc1ccc(-c2c(C)nc3c(N4CCOCC4)nccn23)cn1` [compound 7, 3-[6-(2-Methoxy-2-methyl-propyl)-pyridin-3-yl]-2-methyl-8-morpholin-4-yl-imidazo[1,2-a]pyrazine], the figure is 1.2 mg/kg; as for `COCCc1ccc(-c2c(C3CC3)nc3c(N4CCOCC4)nccn23)cn1` [compound 10, 2-Cyclopropyl-3-[6-(2-methoxy-ethyl)-pyridin-3-yl]-8-morpholin-4-yl-imidazo[1,2-a]pyrazine], 1.2 mg/kg.
In the case of `CCOCCc1ccc(-c2c(C)nc3c(N4CCOCC4)nccn23)cn1` [compound 20, 3-[6-(2-Ethoxy-ethyl)-pyridin-3-yl]-2-methyl-8-morpholin-4-yl-imidazo[1,2-a]pyrazine], the ED50 amounted to 1.2 mg/kg.
On to `Cc1nc2c(N3CCOCC3)nccn2c1-c1ccc(CCOC(C)C)nc1` [compound 21, 3-[6-(2-Isopropoxy-ethyl)-pyridin-3-yl]-2-methyl-8-morpholin-4-yl-imidazo[1,2-a]pyrazine], for which the ED50 came out at 1.2 mg/kg.

The same assay, now with this note: Rattus norvegicus; not active at 2.5 or at 10 mg/kg, not further tested; read-out: APO ED50 (not active at threshold dose).
Turning to `CCOCc1ccc(-c2c(C)nc3c(N4CCOCC4)nccn23)cn1` [compound 5, 3-(6-Ethoxymethyl-pyridin-3-yl)-2-methyl-8-morpholin-4-yl-imidazo[1,2-a]pyrazine], the ED50 was > 2.5 mg/kg.
Consider `COCCc1ccc(-c2c(C(C)C)nc3c(N4CCOCC4)nccn23)cn1` [compound 13, 2-Isopropyl-3-[6-(2-methoxy-ethyl)-pyridin-3-yl]-8-morpholin-4-yl-imidazo[1,2-a]pyrazine], for which the ED50 is > 2.5 mg/kg.
In the case of `Cc1nc2c(N3CCOCC3)nccn2c1-c1ccc(CCO)nc1` [compound 18, 2-[5-(2-Methyl-8-morpholin-4-yl-imidazo[1,2-a]pyrazin-3-yl)-pyridin-2-yl]-ethanol], the ED50 is > 2.5 mg/kg.
As to `COCCc1cc(-c2c(C)nc3c(N4CCOCC4)nccn23)ccn1` [compound 19, 3-[2-(2-Methoxy-ethyl)-pyridin-4-yl]-2-methyl-8-morpholin-4-yl-imidazo[1,2-a]pyrazine], the ED50 was > 2.5 mg/kg.
